The values below are quoted from earlier work in paper PMC3259182 (European Journal of Medicinal Chemistry, 2011).

In series [1] the test system is NV replicon-harboring cells (HG23 cells). The note with it: NV genome levels, 24 hr post-treatment, ref [4].
The subject of series [2] is HG23 cells. To be noted: median toxic dose at 48 hr of treatment, ref [4].

The structures appear in SMILES notation.

Regarding `Cl.O=S1(=O)N(CCN2CCOCC2)CCN1Cc1cccc(Oc2ccccc2)c1` [Compound 7c, 2-(2-Morpholinoethyl)-5-(3-phenoxybenzyl)-1,2,5-thiadiazolidine 1,1-dioxide], in series [1], the ED50 is 5.2 µM. In addition, the TD50 in series [2] is 95.4 µM.

`O=S1(=O)N(CCN2CCCCC2)CCN1Cc1cccc(Oc2ccccc2)c1` [Compound 7d, 2-(3-Phenoxybenzyl)-5-(2-(piperidin-1-yl)ethyl)-1,2,5-thiadiazolidine1,1-dioxide]: the ED50 in series [1] is 4.7 µM. The TD50 in series [2] was 12.3 µM.
